Data from ChEMBL document CHEMBL4673338, “ROCK inhibitors 4: Structure-activity relationship studies of 7-azaindole-based rho kinase (ROCK) inhibitors” (Bioorg Med Chem Lett, 2021).

Key:
[1] = species on record: Homo sapiens; assay: Selectivity index, ratio of Ki for PKA (unknown origin) to Ki for ROCK1 (unknown origin)
[2] = target: Rho-associated protein kinase 1 (Homo sapiens, UniProt Q13464); assay: Inhibition of ROCK1 (unknown origin)
[3] = test system: THP-1; assay: Antimigratory activity against human THP-1 cells; type: functional, cell-based
[4] = target: Cytochrome P450 3A4 (Homo sapiens, UniProt P08684); assay: Inhibition of CYP3A4 (unknown origin); type: ADME
Cytochrome P450 3A4, sequence (P08684 whole entry): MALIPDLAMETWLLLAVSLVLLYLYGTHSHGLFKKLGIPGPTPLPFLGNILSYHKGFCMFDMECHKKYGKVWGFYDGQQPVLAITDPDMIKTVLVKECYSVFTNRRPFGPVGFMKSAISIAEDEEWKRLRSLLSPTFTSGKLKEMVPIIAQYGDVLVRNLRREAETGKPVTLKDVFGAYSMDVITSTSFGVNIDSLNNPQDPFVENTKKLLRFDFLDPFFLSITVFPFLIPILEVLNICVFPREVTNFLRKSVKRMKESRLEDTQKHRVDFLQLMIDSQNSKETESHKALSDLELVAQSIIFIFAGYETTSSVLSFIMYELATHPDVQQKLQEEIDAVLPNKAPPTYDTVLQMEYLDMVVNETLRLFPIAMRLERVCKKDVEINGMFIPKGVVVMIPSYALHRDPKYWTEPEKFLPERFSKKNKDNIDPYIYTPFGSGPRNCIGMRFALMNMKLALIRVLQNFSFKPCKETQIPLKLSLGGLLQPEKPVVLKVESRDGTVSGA

[5] = Clearance in rat at 1 mg/kg, iv; type: ADME, organism-based; conditions: in vivo
[6] = AUC(0 to infinity) in rat at 1 mg/kg, iv; type: ADME, organism-based; parameters: route intravenous, time infinity, dose 1 mg/kg; conditions: in vivo
[7] = Half life in rat at 1 mg/kg, iv; type: ADME, organism-based; conditions: in vivo
[8] = Volume of distribution at steady state in rat at 1 mg/kg, iv; type: ADME, organism-based; conditions: in vivo, read-out: Vdss
[9] = Intrinsic clearance in rat Hepatocyte assessed per million cells; type: ADME, tissue-based; conditions: hepatocytes, read-out: CLH
[10] = Intrinsic clearance in human Hepatocyte assessed per million cells; type: ADME, tissue-based; conditions: hepatocytes, read-out: CLH
[11] = target: Voltage-gated inwardly rectifying potassium channel KCNH2 (Homo sapiens, UniProt Q12809); assay: Inhibition of human ERG
Voltage-gated inwardly rectifying potassium channel KCNH2, sequence (Q12809 whole entry): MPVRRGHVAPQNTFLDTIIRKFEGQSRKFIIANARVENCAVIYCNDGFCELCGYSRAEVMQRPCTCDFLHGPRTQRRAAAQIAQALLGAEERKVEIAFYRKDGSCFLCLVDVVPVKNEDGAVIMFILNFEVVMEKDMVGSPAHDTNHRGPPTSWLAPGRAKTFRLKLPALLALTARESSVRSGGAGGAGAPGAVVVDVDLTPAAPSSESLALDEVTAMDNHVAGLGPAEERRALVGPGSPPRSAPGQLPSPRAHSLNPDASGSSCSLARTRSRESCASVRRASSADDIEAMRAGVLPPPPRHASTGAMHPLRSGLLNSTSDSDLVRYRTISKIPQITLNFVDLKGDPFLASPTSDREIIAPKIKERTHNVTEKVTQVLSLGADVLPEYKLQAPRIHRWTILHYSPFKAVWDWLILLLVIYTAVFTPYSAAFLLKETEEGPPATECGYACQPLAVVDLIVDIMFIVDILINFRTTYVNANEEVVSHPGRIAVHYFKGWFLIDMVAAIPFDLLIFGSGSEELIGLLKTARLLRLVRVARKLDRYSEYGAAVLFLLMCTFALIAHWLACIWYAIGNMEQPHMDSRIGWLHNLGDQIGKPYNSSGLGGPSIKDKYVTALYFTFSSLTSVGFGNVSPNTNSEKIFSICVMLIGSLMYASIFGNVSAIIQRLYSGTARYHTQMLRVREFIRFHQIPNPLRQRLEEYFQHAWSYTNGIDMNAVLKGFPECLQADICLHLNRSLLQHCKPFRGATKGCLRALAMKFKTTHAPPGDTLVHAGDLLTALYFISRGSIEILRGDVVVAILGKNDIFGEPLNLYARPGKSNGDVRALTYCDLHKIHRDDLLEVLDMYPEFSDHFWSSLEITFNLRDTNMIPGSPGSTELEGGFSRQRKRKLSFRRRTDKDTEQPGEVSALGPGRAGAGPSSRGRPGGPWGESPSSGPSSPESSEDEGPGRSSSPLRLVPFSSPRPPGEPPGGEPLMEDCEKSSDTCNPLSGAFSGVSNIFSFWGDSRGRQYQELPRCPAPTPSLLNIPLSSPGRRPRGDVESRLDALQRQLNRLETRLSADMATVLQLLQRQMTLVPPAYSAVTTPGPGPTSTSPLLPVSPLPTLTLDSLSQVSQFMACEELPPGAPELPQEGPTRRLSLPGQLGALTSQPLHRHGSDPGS

[12] = AUC(0 to infinity) in rat at 3 mg/kg, po; type: ADME, organism-based; parameters: route oral, time infinity, dose 3 mg/kg; conditions: in vivo
[13] = Cmax in rat at 3 mg/kg, po; type: ADME, organism-based; parameters: route oral, dose 3 mg/kg; conditions: in vivo
[14] = Oral bioavailability in rat at 3 mg/kg; type: ADME, organism-based; conditions: in vivo

Rho-associated protein kinase 1, sequence (Q13464 whole entry): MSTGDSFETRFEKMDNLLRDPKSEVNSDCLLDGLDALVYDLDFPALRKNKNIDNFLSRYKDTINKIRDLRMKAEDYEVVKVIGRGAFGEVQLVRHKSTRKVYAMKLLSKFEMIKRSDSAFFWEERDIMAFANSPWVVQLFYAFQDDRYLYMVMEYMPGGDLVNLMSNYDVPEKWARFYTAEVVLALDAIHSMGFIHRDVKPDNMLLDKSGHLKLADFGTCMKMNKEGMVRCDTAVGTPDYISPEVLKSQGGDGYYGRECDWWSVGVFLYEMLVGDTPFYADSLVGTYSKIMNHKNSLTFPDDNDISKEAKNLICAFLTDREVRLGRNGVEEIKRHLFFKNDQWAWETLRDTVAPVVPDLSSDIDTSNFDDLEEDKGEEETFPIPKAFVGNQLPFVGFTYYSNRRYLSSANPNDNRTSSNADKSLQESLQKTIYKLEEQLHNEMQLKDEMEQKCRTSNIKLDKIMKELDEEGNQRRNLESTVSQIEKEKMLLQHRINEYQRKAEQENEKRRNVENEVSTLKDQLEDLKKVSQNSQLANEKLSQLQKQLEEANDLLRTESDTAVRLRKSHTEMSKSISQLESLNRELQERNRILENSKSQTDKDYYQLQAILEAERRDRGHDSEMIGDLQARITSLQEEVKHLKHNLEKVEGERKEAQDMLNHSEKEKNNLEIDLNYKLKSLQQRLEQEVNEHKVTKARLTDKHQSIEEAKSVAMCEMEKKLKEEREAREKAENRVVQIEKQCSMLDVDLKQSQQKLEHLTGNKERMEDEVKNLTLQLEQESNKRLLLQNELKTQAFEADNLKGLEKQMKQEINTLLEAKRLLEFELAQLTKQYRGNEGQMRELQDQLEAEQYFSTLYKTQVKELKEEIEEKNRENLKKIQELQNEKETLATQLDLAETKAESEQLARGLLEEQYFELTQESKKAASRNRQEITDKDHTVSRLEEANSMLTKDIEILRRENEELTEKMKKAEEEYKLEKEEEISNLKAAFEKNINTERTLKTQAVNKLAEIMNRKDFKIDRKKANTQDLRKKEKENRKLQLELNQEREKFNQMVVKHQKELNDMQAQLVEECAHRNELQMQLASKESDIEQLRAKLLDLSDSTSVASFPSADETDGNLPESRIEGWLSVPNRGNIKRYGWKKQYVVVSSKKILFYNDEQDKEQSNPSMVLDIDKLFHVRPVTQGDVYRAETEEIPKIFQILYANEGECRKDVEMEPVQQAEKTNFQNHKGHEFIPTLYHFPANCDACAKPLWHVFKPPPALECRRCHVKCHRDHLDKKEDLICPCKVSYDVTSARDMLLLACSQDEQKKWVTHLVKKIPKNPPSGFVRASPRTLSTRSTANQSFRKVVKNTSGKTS

Ratio Ki [1]	Ki [2] [µM]	IC50 [3] [µM]	IC50 [4] [µM]	Compound	further results
23	0.048	8	48	CS(=O)(=O)Nc1cccc(CC(=O)Nc2nccc(-c3c[nH]c4ncccc34)n2)c1	–
–	–	–	–	CN1CCN(CCCOc2cccc(CC(=O)Nc3nc(-c4c[nH]c5ncccc45)cs3)c2)CC1	clearance [5]: 6.84 L/h/kg; AUC(0-inf) [6]: 0.15 µg·h/mL; half-life [7]: 0.71 h; Vd [8]: 10 L/kg; hepatocyte CLint [9]: 26.8 µL/min/1e6 cells; hepatocyte CLint [10]: 7.5 µL/min/1e6 cells
143	0.003	0.05	100	O=C(Cc1cccc(OCCCC2CCNCC2)c1)Nc1nc(-c2c[nH]c3nccc(F)c23)cs1	clearance [5]: 4.08 L/h/kg; AUC(0-inf) [6]: 0.25 µg·h/mL; half-life [7]: 5.5 h; Vd [8]: 19 L/kg; IC50 [11]: > 30 µM; hepatocyte CLint [10]: 5.7 µL/min/1e6 cells
1	0.1	–	5	CS(=O)(=O)Nc1cccc(CC(=O)Nc2cc(-c3c[nH]c4ncccc34)cs2)c1	–
320	0.003	0.4	27	CN1CCN(CCOc2cccc(CC(=O)Nc3nc(-c4c[nH]c5ncc(F)cc45)cs3)c2)CC1	–
31	0.052	–	5	Cc1sc(NC(=O)Cc2cccc(NS(C)(=O)=O)c2)nc1-c1c[nH]c2ncccc12	–
53	0.003	0.07	6	CS(=O)(=O)Nc1cccc(CC(=O)Nc2nc(-c3c[nH]c4ncc(F)cc34)cs2)c1	hepatocyte CLint [9]: 11.7 µL/min/1e6 cells; IC50 [11]: > 30 µM; hepatocyte CLint [10]: 4.3 µL/min/1e6 cells
180	0.01	0.4	–	CN1CCN(CCCOc2cccc(CC(=O)Nc3nc(-c4c[nH]c5nccc(F)c45)cs3)c2)CC1	–
46	0.011	0.31	8	CS(=O)(=O)Nc1cccc(CC(=O)Nc2nc(-c3c[nH]c4ncc(Cl)cc34)cs2)c1	–
107	0.007	1.3	5	CS(=O)(=O)Nc1cccc(CC(=O)Nc2nc(-c3c[nH]c4ncc(O)cc34)cs2)c1	–
> 480	0.001	0.14	–	O=C(Cc1cccc(OCCCC2CCNCC2)c1)Nc1nc(-c2c[nH]c3ncc(F)cc23)cs1	clearance [5]: 3.96 L/h/kg; AUC(0-inf) [6]: 0.25 µg·h/mL; half-life [7]: 3.8 h; Vd [8]: 8.7 L/kg; hepatocyte CLint [9]: 20.5 µL/min/1e6 cells; IC50 [11]: > 30 µM; hepatocyte CLint [10]: 6.3 µL/min/1e6 cells
39	0.008	0.34	6	CS(=O)(=O)Nc1cccc(CC(=O)Nc2ccc(-c3c[nH]c4ncccc34)s2)c1	–
32	0.022	10	35	CS(=O)(=O)Nc1cccc(CC(=O)Nc2nc(-c3c[nH]c4ncc(Br)cc34)cs2)c1	–
–	–	0.02	–	CN1CCN(CCOc2cccc(CC(=O)Nc3nc(-c4c[nH]c5ncccc45)cs3)c2)CC1	AUC(0-inf) [12]: 0.6 µg·h/mL; clearance [5]: 4.26 L/h/kg; AUC(0-inf) [6]: 0.24 µg·h/mL; Cmax [13]: 0.06 µg/mL; half-life [7]: 3.2 h; Vd [8]: 14 L/kg; hepatocyte CLint [9]: 32 µL/min/1e6 cells; bioavailability [14]: 46%; hepatocyte CLint [10]: 3.3 µL/min/1e6 cells
34	0.007	1.52	100	CS(=O)(=O)Nc1cccc(CC(=O)Nc2nnc(-c3c[nH]c4ncccc34)s2)c1	–
–	–	0.02	–	O=C(Cc1cccc(OCCCC2CCNCC2)c1)Nc1nc(-c2c[nH]c3ncccc23)cs1	clearance [5]: 7.68 L/h/kg; AUC(0-inf) [6]: 0.13 µg·h/mL; half-life [7]: 5.4 h; Vd [8]: 24 L/kg
31	0.01	0.37	12	CS(=O)(=O)Nc1cccc(CC(=O)Nc2csc(-c3c[nH]c4ncccc34)n2)c1	–
31	0.004	0.08	36	CS(=O)(=O)Nc1cccc(CC(=O)Nc2nc(-c3c[nH]c4nccc(F)c34)cs2)c1	–
20	0.007	0.82	100	CS(=O)(=O)Nc1cccc(CC(=O)Nc2cc(-c3c[nH]c4ncccc34)ncn2)c1	–
–	–	0.02	–	CS(=O)(=O)Nc1cccc(CC(=O)Nc2nc(-c3c[nH]c4ncccc34)cs2)c1	AUC [12]: 9.2 µg·h/mL; clearance [5]: 0.42 L/h/kg; AUC [6]: 2.4 µg·h/mL; Cmax [13]: 0.9 µg/mL; half-life [7]: 2 h; Vd [8]: 0.6 L/kg; hepatocyte CLint [9]: 6.7 µL/min/1e6 cells; F ([14]; 3 mg/kg): 38%; hepatocyte CLint [10]: 4 µL/min/1e6 cells
2	0.092	–	8	CS(=O)(=O)Nc1cccc(CC(=O)Nc2nc(-c3c[nH]c4nccc(Cl)c34)cs2)c1	–
240	0.005	0.26	–	CN1CCN(CCCOc2cccc(CC(=O)Nc3nc(-c4c[nH]c5ncc(F)cc45)cs3)c2)CC1	–
